# Reference: BindingDB's records for patent US11214574 (Prelude Therapeutics, Incorporated, 2022)
# Target: Methylosome protein 50/Protein arginine N-methyltransferase 5 (Homo sapiens, UniProt O14744+Q9BQA1)
# Test: Biochemical Assay
# Description: Compounds were solubilized and 3-fold diluted in 100% DMSO. […] Standard reactions were performed in a total volume of 30 μl in assay buffer, with 300 nM histone H4 based AcH4-23 (Anaspec: AS-65002) as substrate. To this was added the PRMT5/MEP50 complex diluted to provide a final assay concentration of 2.5 nM and the compounds were allowed to preincubate for 20 minutes at 37° C. The reaction was initiated by adding S-[3H-methyl]-adenosyl-L-methionine (PerkinElmer: NET155001MC) to final concentration of 1 μM. Following a 30 minutes incubation at 37° C., the reaction was stopped by adding 25 μL of 8M Guanidine HCl. Prepare streptavidin YSI SPA beads (Perkinelmer: RPNQ0012) at 0.3 mg/mL in assay buffer. To each reaction, add 150 μL of SPA beads suspension, and incubated while shaking at room temperature for 30 minutes. The plate was centrifuged at 100×g for 30 second before reading in a scintillation counter. IC50 values were determined by fitting the data to the standard 4 parameters with Hill Slope using GraphPad Prism software.
# Methylosome protein 50/Protein arginine N-methyltransferase 5, sequence (O14744 whole entry): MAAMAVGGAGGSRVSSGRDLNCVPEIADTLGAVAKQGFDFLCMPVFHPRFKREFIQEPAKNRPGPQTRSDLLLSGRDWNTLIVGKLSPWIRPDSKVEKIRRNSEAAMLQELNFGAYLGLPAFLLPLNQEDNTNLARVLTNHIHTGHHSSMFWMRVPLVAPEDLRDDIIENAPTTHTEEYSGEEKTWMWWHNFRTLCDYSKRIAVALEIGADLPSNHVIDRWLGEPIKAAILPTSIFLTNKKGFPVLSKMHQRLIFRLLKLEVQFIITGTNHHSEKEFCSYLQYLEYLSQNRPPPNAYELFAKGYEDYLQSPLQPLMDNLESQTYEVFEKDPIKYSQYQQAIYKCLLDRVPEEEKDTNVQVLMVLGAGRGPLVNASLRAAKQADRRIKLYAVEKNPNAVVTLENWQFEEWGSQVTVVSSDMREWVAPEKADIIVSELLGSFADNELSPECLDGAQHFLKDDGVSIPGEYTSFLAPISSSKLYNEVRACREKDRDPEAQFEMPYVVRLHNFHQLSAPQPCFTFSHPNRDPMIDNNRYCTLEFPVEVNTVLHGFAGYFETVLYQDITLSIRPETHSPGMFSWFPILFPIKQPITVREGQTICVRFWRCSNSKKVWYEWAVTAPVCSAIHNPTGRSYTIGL
# Methylosome protein 50/Protein arginine N-methyltransferase 5, sequence (Q9BQA1 whole entry): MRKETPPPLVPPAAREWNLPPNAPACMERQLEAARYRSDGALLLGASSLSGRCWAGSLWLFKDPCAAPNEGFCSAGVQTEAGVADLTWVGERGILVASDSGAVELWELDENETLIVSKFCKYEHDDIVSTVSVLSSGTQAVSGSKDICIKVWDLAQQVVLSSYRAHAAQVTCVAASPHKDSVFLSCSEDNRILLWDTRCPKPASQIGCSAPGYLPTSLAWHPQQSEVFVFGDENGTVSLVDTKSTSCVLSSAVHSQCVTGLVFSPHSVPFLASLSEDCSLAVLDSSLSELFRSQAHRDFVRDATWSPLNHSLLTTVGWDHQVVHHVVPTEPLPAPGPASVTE
structure (smiles),measurement,value
"Nc1ncnc2c1ccn2[C@@H]1O[C@H]([C@H]2OC(=O)c3cc(Cl)ccc32)[C@@H](O)[C@H]1O [US11214574, Ex# 1B]",IC50,270 nM
